This is an account of results in patent publication US20180318386A1, “PEPTIDES AND METHODS OF TREATING ENDOMETRIOSIS USING THE SAME” (BIOINCEPT, LLC, priority 2014, published 2018).

The subject of assay [1] is Lymphocytes. Briefly: FITC-PIF binding to mare immune cells, flow cytometry: lymphocytes. The format is cell-based. From the text: (§1) Method: whole blood was collected from jugular vein of pregnant (n=4) and non-pregnant (n=8) mares into lithium heparin vacutainers. Whole blood was layered over histopaque (Sigma) density gradient and red cells were allowed to settle through the gradient, leaving a leukocyte-rich plasma layer above. Cells were washed twice in sterile PBS and any remaining RBCs lysed with 0.16 M ammonium chloride solution. […] Cell types were separated based upon their scatter characteristics. […] FIG. 20 and Table 20 show mean+/−SEM in both pregnant and non-pregnant mares, and depicts binding characteristics showing significant differences between FITC-PIF and control, P<0.001.
In general terms: In flow cytometry, cells or beads pass a laser one at a time.

Assay [2] concerns CD4+/CD25+/FoxP3+ cells. Description: FITC-PIF binding to regulatory T-cells, two- and three-color flow cytometry. The format is cell-based, human. The note with it: 0-100 uM FITC-labelled peptide.
The subject of assay [3] is Monocytes. Description: FITC-PIF binding to mare immune cells, flow cytometry: monocytes. Type of assay: cell-based.
From the text: as §1

Assay [4] has as its system Granulocytes. Description: FITC-PIF binding to mare immune cells, flow cytometry: granulocytes. Type of assay: cell-based.
From the text: as §1

Setting [5] is: Non-pregnant mares, 1 ug/ml FITC-labelled peptide (n = 8).
Where [6] appears, read: Non-pregnant mares, 5 ug/ml FITC-labelled peptide (n = 8).
Setting [7] is: Non-pregnant mares, 10 ug/ml FITC-labelled peptide (n = 7).
[8] abbreviates: Pregnant mares, 1 ug/ml FITC-labelled peptide (n = 4).
Where [9] appears, read: Pregnant mares, 5 ug/ml FITC-labelled peptide (n = 4).
The mark [10] stands for this setting: Pregnant mares, 10 ug/ml FITC-labelled peptide (n = 4).

Take “GRVDPSNKSMPKDIA (scrPIF-1 (15)) [PIFscr, control]”: the “binding to Lymphocytes, Mean” value in assay [1] (setting [5]) was determined as 0.27; in assay [1] (setting [6]) it was 1.08; in assay [1] (setting [7]), 2.04; in assay [1] (setting [8]) it was 0.12; in assay [1] (setting [9]), 0.78; in assay [1] (setting [10]), 2.84. Further, the “binding to CD4+/CD25+/FoxP3+ cells” value in assay [2] is “minimal binding”. For the same sequence, the “binding to Monocytes, Mean” value in assay [3] (setting [5]) amounted to 1.10; in assay [3] (setting [6]) it was 5.20; in assay [3] (setting [7]), 12.39; in assay [3] (setting [8]) it was 0.78; in assay [3] (setting [9]), 6.36; in assay [3] (setting [10]), 31.07. Besides, the “binding to Granulocytes, Mean” value in assay [4] (setting [5]) was determined as 0.26; in assay [4] (setting [6]), 1.78; in assay [4] (setting [7]) it was 3.89; in assay [4] (setting [8]) it was 0.09; in assay [4] (setting [9]), 0.93; in assay [4] (setting [10]), 4.51.
